Laboratory results as given in US20070042056A1, “Anti-stress agent” (priority 2003, published 2007).

What was measured:
GABA receptor [1] = test: In vitro GABA receptor-activating activity, Xenopus oocyte expressing GABA receptor, voltage clamp; format: cell-based, rat; conditions: for GABA response to GABA receptor, relative value of inhibitory potential vs GABA only (set at 100%): GABA 5 μM
Procedure: As an experimental material, an oocyte of Xenopus was used. A rat-derived GABA receptor mRNA was injected into the nucleus of an oocyte to express GABA receptor on the surface of the egg. The oocyte was cultured in a normal Ringer's solution for frog (115 mM NaCl, 1 mM KCl, 1.8 mM CaCl2, 5 mM Tris, pH 7.2). Using the resulting oocyte, inhibitory potential of GABA (10 μM) and inhibitory potential of a mixed solution of GABA (10 μM) and the below mentioned sample were measured. Generation of inhibitory potential was measured by voltage clamp method using a voltage clamping amplifier (CEZ-1100; manufactured by NIHON KODEN CORPORATION).
As a sample, the following 9 kinds of aroma components contained in coffee or teas were used in a concentration of 2 μl/ml. Samples used are as follows: 2-methyl-3-buten-2-ol (expressed by 2-M3BOL in FIG. 1), 3-methyl-2-buten-1-ol (expressed by 3-M2BOL in FIG. 1), 1-penten-3-ol (expressed by 1-POL in FIG. 1), (E)-2-hexen-1-ol (expressed by HXOL in FIG. 1), 1-octen-3-ol (expressed by 1-OCOL in FIG. 1), sotolone (expressed by STOL in FIG. 1), 2,4-dimethylstyrene (expressed by 2,4-DMS in FIG. 1), benzothiazole (expressed by BZT in FIG. 1) and 2,3,5-trimethylphenol (expressed by 2,3,5-TEP in FIG. 1). The aforementioned samples used in the experiment were commercially available products. That is, sotolone manufactured by Ogawa & Co., Ltd. and other compounds manufactured by Tokyo Kasei Co., Ltd. were used.
As an index, enhancing activity of the sample on inhibitory potential induced by GABA was used. The results are expressed by % increase of the inhibitory potential when GABA and a sample were used in combination, relative to the inhibitory potential generated when only GABA (0.25 μM) was added (set at 100%).
Dose dependency of 1-octen-3-ol which had been recognized to have a strong activity in Example 1 was studied. The experimental procedures were entirely the same as those of Example 1. The concentration of GABA was 5 μM, and the concentration of 1-octen-3-ol was 0.3 to 1 mM. […] The results shown in FIG. 2 are expressed by the relative value of the inhibitory potential when GABA and 1-octen-3-ol were used in combination, compared to the inhibitory potential generated when only GABA (5 μM) was added (set at 100%).
As an experimental material, an oocyte of Xenopus was used. A rat-derived GABA receptor mRNA was injected into the nucleus of an oocyte to express GABA receptor on the surface of an egg. The oocyte was cultured in a normal Ringer's solution for frog (115 mM NaCl, 1 mM KCl, 1.8 mM CaCl2, 5 mM Tris, pH 7.2). Generation of the inhibitory potential induced by GABA (0.25 μM) was measured by voltage clamp method using a voltage clamping amplifier (CEZ-1100; manufactured by Nihon Koden corporation).
As samples, the below-mentioned 4 kinds of aroma components of oolong tea were used in a concentration of 0.5 mM. The samples used are as follows: cis-jasmone, methyl jasmonate, jasmine lactone and linalool oxide.
Dose dependency of cis-jasmone and methyl jasmonate which had been recognized to have a strong activity in Example 4 was studied. The experimental procedures were entirely the same as those of Example 4. The concentration of GABA was 5 μM, and the concentrations of cis-jasmone and methyl jasmonate were 0.2 to 1 mM. […] The results shown in FIG. 5 are expressed by the relative value of the inhibitory potential when GABA and cis-jasmone and methyl jasmonate were used in combination compared to the inhibitory potential generated when only GABA (5 μM) was added (set at 100%).

ddy male mice = test: Enhancing activity on pentobarbital-induced sleep (duration of the sleeping time); format: in vivo
Procedure: (§1) As a test animal, ddy male mice (8-week age) were purchased from Shimizu Laboratory Supplies Co., Ltd., pre-bred for one week and used in the experiment. Each five of the mice were bred in a polyisopentene cage (manufactured by Clea Japan. Inc.) in a breeding chamber where the breeding conditions were set at room temperature of 23±2° C., humidity of 55±5%, ventilation frequency of 12 to 15/hour (all fresh air ventilation), and lighting hours of 12 hours/day (from 7 a.m. to 7 p.m.). The mice were fed solid feed CE-2 (Clea Japan Inc.) and were allowed free access to water.
1-Octen-3-ol dissolved in olive oil was orally administered to a mouse at a dose of 20 or 100 mg/kg. In each group, 8 mice were used. Thirty minutes later, pentobarbital dissolved in physiological saline was intraperitoneally administered at a dose of 50 mg/kg, and duration of the sleeping time was measured. The sleeping time was defined as the time period from the loss of righting reflex until its recovery.
The experimental results shown in FIG. 3 are expressed by average±standard error, and Student t-test was used in a significant difference test.
as §1, with “Co.,” for “Co., Ltd.,”, “one week,” for “one week”, “air ventilation)” for “air ventilation),”, “12 hours a day” for “12 hours/day”, “(Clea Japan.” for “(Clea Japan”
A mouse was made to aspirate cis-jasmone and methyl jasmonate diluted to 0.1% in an exposure box until the completion of the experiment. In each group, 5 mice were used. Thirty minutes after initiation of aspiration, pentobarbital dissolved in physiological saline was intraperitoneally administered at a dose of 50 mg/kg, and duration of the sleeping time was measured. […]

rat = conditions: cited from earlier work; for development of gastric ulcer: cold-restraint stress (4° C., 2 hours), intraventricular administration
GABA receptor [2] = conditions: Biosci. Biotechnol. Biochem., 63, 743-748, 1999; cited from earlier work
[3] = 1998-1999 Scientific Research Subsidy Research Outcome Report; cited from earlier work
[4] = Example 4, FIG. 4, sample 0.5 mM, GABA 0.25 μM
[5] = Example 5, FIG. 5, sample 0.2 to 1 mM
[6] = Example 6, FIG. 6, aspiration of sample diluted to 0.1% in exposure box, pentobarbital 50 mg/kg i.p. after 30 min

SMILES: C=CC(O)CCCCC (centres unmarked) [1-octen-3-ol]
- enhancing activity of the sample on inhibitory potential induced by GABA (GABA receptor [1]; Example 1, FIG. 1, sample 2 μl/ml, GABA 10 μM / 0.25 μM): strong activity to enhance the response
- GABA response to GABA receptor, relative value of inhibitory potential vs GABA only (set at 100%) (GABA receptor [1]; Example 2, FIG. 2, 1-octen-3-ol 0.3 to 1 mM): up to 400%
- duration of the sleeping time induced by pentobarbital (ddy male mice; Example 3, FIG. 3, orally 20 or 100 mg/kg in olive oil, 30 min before pentobarbital 50 mg/kg i.p.): extended duration of the sleeping time induced by pentobarbital in a dose dependent manner

SMILES: NCCCC(=O)O [GABA]
- development of gastric ulcer (rat): suppressed in a dose dependent manner

SMILES: NCc1cc(=O)[nH]o1 [Muscimol]
- development of gastric ulcer (rat): suppressed in a dose dependent manner

SMILES: CN1CCc2cc3c(cc2[C@H]1[C@@H]1OC(=O)c2c1ccc1c2OCO1)OCO3 [bicuculine]
- effect on the inhibitory effect of GABA on stress ulceration (rat; cold-restraint stress, bicuculine 40 μg): diminishes the inhibitory effect of GABA on stress ulceration

SMILES: CC/C=C\CC1=C(C)CCC1=O [cis-jasmone]
- enhancing activity of the sample on inhibitory potential induced by GABA (GABA receptor [1]; [4]): activity to enhance the response
- GABA response to GABA receptor, relative value of inhibitory potential vs GABA only (set at 100%) (GABA receptor [1]; [5]): up to 200%
- duration of the sleeping time induced by pentobarbital (ddy male mice; [6]): significantly extended duration of the sleeping time

SMILES: CCCCCCO [hexanol]
- GABA receptor-activating activity (GABA receptor [2]): has GABA receptor-activating activity
- stress relaxing activity [3]: stress relaxing activity

SMILES: CC/C=C\CC1C(=O)CCC1CC(=O)OC (centres unmarked) [methyl jasmonate]
- enhancing activity of the sample on inhibitory potential induced by GABA (GABA receptor [1]; [4]): activity to enhance the response
- GABA response to GABA receptor, relative value of inhibitory potential vs GABA only (set at 100%) (GABA receptor [1]; [5]): ≤ 300%
- duration of the sleeping time induced by pentobarbital (ddy male mice; [6]): significantly extended duration of the sleeping time
